Measurements published in ChEMBL document CHEMBL1201862, “PubChem BioAssay data set” (2004).
The source made the active and inactive calls.

Tests used:
[1] = biological target: DNA dC->dU-editing enzyme APOBEC-3A (Homo sapiens, UniProt P31941); experiment: Dose Response confirmation of small molecule APOBEC3A DNA Deaminase Inhibitors via a fluorescence-based single-stranded DNA deaminase assay. [Related pubchem assays (depositor defined):AID493011, AID493024]; type: functional
[2] = biological target: DNA dC->dU-editing enzyme APOBEC-3G (Homo sapiens, UniProt Q9HC16); type: functional;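 further: Dose-response counterscreen measuring inhibition of APOBEC3G DNA deaminase activity, run while confirming APOBEC3A inhibitors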
Sequence of DNA dC->dU-editing enzyme APOBEC-3G (Q9HC16 whole entry, the tested form may be a part): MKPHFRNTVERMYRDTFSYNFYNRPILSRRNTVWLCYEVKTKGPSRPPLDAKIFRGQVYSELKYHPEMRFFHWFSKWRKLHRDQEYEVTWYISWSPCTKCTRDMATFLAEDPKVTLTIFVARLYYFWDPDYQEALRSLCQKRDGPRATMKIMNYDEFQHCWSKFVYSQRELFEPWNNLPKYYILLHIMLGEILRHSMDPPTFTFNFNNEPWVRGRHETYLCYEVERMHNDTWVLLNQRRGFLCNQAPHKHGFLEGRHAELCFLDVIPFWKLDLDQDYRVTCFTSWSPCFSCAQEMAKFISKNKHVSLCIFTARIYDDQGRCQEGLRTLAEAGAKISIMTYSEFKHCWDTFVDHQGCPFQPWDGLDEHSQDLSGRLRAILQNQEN

[3] = biological target: T1, Carboxy-terminal domain RNA polymerase II polypeptide A small phosphatase 1 (Homo sapiens, UniProt Q9GZU7); experiment: CTDSP1 inhibitors, concentration-response, biochemical, absorbance readout, ultra-high-throughput screen actives (AID 540297); type: functional
T1 sequence (Q9GZU7 whole entry): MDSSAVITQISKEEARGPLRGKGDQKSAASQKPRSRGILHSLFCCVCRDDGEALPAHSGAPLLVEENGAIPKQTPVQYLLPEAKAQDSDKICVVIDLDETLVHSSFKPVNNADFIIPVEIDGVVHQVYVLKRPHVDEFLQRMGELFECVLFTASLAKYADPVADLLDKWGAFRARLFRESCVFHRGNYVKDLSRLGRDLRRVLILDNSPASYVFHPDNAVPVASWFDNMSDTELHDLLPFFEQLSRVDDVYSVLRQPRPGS

Cytochrome P450 3A4 = Cytochrome P450 3A4 (Homo sapiens, UniProt P08684); conditions: Potency;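 further: confirmatory qHTS run detecting inhibitors and substrates of CYP3A4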
Sequence of Cytochrome P450 3A4 (P08684 whole entry): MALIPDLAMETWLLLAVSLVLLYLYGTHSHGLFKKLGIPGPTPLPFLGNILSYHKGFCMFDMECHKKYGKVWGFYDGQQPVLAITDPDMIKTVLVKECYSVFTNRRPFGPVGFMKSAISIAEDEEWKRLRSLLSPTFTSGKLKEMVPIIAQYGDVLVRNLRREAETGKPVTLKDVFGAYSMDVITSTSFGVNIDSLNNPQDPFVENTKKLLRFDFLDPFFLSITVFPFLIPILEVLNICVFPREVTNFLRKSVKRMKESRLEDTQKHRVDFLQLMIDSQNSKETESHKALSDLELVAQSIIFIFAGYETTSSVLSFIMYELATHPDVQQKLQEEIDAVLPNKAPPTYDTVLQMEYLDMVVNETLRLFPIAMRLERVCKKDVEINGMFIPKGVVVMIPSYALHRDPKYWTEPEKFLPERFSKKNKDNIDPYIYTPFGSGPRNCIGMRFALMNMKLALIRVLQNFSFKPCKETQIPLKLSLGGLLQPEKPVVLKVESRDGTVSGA

Leucine aminopeptidase = biological target: T2, Leucine aminopeptidase (Plasmodium falciparum 3D7, UniProt Q8IL11); experiment: P. falciparum M17LAP inhibitors, primary screen, biochemical, fluorogenic H-Leu-NHMec substrate, 1536-well (AID 1619); type: functional
T2 sequence (Q8IL11 whole entry): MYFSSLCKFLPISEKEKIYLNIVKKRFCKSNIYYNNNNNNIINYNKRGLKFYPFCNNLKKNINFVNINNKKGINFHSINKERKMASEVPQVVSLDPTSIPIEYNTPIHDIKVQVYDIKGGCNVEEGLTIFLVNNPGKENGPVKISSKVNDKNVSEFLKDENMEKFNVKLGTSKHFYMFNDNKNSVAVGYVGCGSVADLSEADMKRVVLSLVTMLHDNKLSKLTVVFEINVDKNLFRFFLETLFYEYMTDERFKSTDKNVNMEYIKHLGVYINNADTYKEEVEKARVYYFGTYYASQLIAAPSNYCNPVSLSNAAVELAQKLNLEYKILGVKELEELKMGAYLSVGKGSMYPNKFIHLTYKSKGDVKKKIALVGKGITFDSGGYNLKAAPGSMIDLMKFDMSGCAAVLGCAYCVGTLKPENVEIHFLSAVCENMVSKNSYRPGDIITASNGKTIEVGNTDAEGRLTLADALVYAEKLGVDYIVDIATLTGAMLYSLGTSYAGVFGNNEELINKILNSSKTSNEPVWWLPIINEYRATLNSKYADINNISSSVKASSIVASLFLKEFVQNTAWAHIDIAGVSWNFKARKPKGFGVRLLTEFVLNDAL

[4] = system: Streptococcus sp. 'group A'; experiment: Streptococcus pyogenes SK(-)GAS viability under kanamycin – luminescence, BacTiterGlo, confirmation, counter-screen for streptokinase expression inhibitor project, dose response (AID 1900); type: functional, organism-based
Streptokinase A = biological target: T3, Streptokinase A (Streptococcus pyogenes serotype M1, UniProt P10520); experiment: viability-normalized secreted streptokinase activity reduction – plasminogen activation absorbance, OD405, dose response (AID 1914); type: functional, Streptococcus pyogenes M1 GAS;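 further: secreted streptokinase activity via plasminogen activation per viability signal from cell pellet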
T3 sequence (P10520 whole entry): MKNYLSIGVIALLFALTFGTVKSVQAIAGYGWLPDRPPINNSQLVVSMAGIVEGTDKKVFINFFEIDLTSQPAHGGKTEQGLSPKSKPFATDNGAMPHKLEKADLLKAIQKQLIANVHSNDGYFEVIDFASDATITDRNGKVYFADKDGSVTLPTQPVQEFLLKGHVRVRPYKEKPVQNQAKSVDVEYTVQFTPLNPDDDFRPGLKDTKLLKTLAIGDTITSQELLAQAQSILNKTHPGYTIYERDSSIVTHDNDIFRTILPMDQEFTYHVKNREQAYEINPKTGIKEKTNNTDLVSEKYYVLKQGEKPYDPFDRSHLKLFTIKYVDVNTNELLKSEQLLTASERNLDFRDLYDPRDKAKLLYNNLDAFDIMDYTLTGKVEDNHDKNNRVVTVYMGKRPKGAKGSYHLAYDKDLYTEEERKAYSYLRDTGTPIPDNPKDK

[5] = microbe, parasite or virus in culture; type: functional; conditions: Mycobacterium tuberculosis
[6] = biological target: T4, Calpain-2 catalytic subunit (Sus scrofa, UniProt P43367); experiment: m-calpain protease blockers, concentration series – biochemical, fluorogenic peptide substrate, dose response (AID 1420); type: functional
T4 sequence (P43367 whole entry): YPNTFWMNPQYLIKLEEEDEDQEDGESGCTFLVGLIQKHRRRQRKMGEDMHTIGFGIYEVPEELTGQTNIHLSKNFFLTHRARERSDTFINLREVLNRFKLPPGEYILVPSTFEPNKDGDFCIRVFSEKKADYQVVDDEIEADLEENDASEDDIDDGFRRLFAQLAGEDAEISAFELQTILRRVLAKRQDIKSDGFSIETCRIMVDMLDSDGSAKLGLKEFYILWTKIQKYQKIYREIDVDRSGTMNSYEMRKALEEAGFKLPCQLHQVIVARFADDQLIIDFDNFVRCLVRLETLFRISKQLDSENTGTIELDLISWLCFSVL

Streptococcus = experiment: GAS UMAA2166 growth inhibition – luminescence, BacTiterGlo, counter-screen for streptokinase expression inhibitor project, dose response (AID 1915); type: functional, organism-based;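 further: potency for reduction of bacterial viability or growth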
Fatty acid synthase [7] = biological target: T5, Fatty acid synthase (Homo sapiens, UniProt P49327); experiment: inhibition of human FAS-TE enzyme activity – biochemical, endpoint fluorescence intensity, uHTS hits, dose response (AID 624327); type: functional;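 further: fluorescence from hydrolysis of an O-methyl fluorescein acyl ester substrate by the enzyme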
T5 sequence (P49327 whole entry): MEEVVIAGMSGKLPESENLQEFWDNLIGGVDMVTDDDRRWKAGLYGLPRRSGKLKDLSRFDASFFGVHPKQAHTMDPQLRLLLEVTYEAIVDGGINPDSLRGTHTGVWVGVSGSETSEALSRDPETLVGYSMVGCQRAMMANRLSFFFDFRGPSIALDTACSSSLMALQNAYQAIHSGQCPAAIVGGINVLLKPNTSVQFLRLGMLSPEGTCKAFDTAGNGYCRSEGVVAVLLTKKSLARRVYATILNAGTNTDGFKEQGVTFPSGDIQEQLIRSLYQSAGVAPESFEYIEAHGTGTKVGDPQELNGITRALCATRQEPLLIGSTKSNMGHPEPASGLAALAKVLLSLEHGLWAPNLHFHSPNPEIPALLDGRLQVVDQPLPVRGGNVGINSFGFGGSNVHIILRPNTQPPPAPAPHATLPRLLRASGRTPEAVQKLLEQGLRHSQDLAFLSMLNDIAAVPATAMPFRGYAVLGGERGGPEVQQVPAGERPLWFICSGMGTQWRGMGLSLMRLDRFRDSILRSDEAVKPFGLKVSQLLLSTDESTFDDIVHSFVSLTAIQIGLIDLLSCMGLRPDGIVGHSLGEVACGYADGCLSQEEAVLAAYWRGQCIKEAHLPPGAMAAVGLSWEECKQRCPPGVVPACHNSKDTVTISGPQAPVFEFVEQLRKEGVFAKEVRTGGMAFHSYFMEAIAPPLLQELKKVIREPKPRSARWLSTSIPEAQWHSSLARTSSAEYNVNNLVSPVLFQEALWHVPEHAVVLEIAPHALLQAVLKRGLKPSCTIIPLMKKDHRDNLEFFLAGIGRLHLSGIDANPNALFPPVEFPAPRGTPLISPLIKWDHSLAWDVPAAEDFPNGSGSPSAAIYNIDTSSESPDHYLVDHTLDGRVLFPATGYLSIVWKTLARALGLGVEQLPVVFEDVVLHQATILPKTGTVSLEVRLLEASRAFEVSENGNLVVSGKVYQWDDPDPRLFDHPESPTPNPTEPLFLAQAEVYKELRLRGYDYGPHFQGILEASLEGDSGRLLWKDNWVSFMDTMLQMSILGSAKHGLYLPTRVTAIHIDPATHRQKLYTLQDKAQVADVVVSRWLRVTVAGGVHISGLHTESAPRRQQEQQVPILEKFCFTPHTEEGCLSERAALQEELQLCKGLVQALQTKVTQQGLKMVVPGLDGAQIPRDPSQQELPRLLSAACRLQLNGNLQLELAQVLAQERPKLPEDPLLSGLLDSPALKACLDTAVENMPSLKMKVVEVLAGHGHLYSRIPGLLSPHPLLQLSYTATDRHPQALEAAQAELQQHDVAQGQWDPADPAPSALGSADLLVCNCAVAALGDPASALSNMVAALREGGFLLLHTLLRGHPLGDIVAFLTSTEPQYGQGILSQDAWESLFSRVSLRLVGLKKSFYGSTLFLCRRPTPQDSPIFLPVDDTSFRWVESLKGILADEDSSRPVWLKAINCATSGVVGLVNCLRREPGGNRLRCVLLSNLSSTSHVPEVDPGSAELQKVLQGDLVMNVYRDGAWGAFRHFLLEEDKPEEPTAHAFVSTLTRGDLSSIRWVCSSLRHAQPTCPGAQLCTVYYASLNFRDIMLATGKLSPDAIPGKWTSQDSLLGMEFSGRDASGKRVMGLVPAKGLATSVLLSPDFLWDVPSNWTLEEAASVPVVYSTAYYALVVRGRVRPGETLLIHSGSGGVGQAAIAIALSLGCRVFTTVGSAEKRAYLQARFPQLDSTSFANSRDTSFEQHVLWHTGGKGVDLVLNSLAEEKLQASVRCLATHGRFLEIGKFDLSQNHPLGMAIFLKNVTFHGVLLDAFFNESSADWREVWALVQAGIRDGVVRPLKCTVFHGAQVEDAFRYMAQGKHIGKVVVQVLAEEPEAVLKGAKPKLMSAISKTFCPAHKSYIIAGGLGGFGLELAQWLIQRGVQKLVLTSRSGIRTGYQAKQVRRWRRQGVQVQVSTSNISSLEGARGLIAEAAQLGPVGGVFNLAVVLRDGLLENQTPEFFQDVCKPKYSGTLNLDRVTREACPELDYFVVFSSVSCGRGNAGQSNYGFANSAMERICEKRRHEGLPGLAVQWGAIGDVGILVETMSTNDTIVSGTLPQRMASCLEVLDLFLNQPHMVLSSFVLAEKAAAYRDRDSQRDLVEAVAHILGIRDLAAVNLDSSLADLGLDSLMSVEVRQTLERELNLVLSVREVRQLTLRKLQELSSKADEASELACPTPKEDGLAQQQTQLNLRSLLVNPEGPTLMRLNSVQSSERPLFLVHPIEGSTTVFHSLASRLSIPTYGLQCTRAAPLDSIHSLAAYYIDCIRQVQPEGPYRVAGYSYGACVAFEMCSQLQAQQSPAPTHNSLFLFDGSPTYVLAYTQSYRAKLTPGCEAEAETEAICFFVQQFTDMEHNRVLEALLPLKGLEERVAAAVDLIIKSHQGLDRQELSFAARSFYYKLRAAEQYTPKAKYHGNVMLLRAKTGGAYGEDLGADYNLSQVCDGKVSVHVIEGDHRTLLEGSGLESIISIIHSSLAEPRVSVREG

Fatty acid synthase [8] = biological target: T5, Fatty acid synthase; experiment: inhibition of human FAS-TE enzyme activity – biochemical, kinetic fluorescence intensity, dose response (AID 624326); type: functional;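 further: rate of fluorescence rise from hydrolysis of a fluorogenic O-methyl fluorescein ester substrate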
[9] = blockers of HIV-1 envelope-mediated cell-cell fusion – cherry-pick, dose response (AID 652057); type: functional, cell-based
[10] = blockers of HIV-1 ZM109 envelope-driven cell-cell fusion – HeLa effector, CEM target cells, luciferase, cherry-pick, dose response (AID 652058); type: functional, cell-based;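 further: luciferase signal from HIV-1 Env mediated cell-cell fusion of effector and target cells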
[11] = off-target signal loss in HeLa-CEM21 co-culture – HeLa F-luc CTL cells, cherry-picked, counter-screen for HIV-1 Env fusion inhibitor project, dose response (AID 652040); type: functional, cell-based;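 further: potency for signal decrease marking cytotoxic or nonspecific inhibition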
[12] = HIV-1 AD8 envelope cell-cell fusion blockers – cherry-pick, dose response (AID 652062); type: functional, cell-based;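 further: luciferase signal from cell-cell fusion driven by HIV-1 clade B AD8 Env; potency is for inhibitors of fusion seen as a drop in luminescence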
[13] = biological target: Glyceraldehyde-3-phosphate dehydrogenase (Homo sapiens, UniProt P04406)
Sequence of Glyceraldehyde-3-phosphate dehydrogenase (P04406 whole entry): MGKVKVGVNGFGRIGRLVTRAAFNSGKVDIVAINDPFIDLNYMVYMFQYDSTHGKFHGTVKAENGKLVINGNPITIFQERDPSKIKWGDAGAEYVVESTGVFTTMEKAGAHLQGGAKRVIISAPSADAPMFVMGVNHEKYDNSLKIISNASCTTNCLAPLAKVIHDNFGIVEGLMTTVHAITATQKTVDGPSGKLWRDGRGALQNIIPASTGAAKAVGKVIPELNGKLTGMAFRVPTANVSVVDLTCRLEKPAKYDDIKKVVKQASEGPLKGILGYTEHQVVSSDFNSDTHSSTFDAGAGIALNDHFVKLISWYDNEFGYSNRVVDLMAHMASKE

[14] = A549 cell cytotoxicity, dose response, cytotoxicity control, plate reader, cherry-pick, antagonist series (AID 743412); type: functional, cell-based
[15] = blockers of bursicon-stimulated LGR2 cAMP reporter – cell-based, HEK293, CRE-luciferase reporter, cherry pick, set 2, dose response (AID 743343); type: functional;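 further: transfected cells were stimulated with diluted bursicon conditioned medium after compound addition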
[16] = blockade of melanocortin 4 receptor signaling – cell-based, plate reader, cherry pick, counter-screen for LGR2 antagonist project, dose response (AID 743444); type: functional;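 further: transfected HEK 293 cells stimulated with alpha-MSH peptide; potency of inhibitors of the alpha-MSH evoked signal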
[17] = viability loss in HEK293 cells – cell-based, plate reader, cherry-picked samples, cytotoxicity control, dose response (AID 743446); type: functional

Sequence of DNA dC->dU-editing enzyme APOBEC-3A (P31941 whole entry): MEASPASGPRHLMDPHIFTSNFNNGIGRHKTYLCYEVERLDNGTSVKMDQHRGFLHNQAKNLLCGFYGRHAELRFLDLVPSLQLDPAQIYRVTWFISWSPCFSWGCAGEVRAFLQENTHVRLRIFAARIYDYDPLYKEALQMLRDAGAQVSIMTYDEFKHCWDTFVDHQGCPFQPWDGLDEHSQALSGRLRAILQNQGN

Structure (SMILES): O=C(COC(=O)/C=C/c1ccco1)Nc1ncc(C(F)(F)F)cc1Cl
- IC50 [1]: 16.9 µM (active)
- IC50 [2]: 29.9 µM (active)
- IC50 [3]: 4.77 µM (active)

Structure (SMILES): CCCn1c(-c2ccc(F)cc2)nc2c(NCCCCN(C)C)nc(C)nc21
- AC50 (Cytochrome P450 3A4): 25.1 µM (inconclusive)

Structure (SMILES): O=C(CCc1ccc(O)cc1)c1c(O)cc(O)cc1O[C@H]1OC(CO)C(O)C(O)C1O (stereo partly drawn)
- AC50 (Cytochrome P450 3A4): 39.8 µM (inconclusive)

Structure (SMILES): O=C(O)/C=C/C(=O)Nc1ccccc1C(=O)OCC(=O)c1ccc2c(c1)OCCO2
- IC50 (Leucine aminopeptidase): 36.9 µM (active)

Structure (SMILES): Cc1ccc(S(=O)(=O)N(CC(=O)O)Cc2ccco2)cc1
- IC50 [1]: 16 µM (active)
- IC50 [2]: 28.4 µM (active)

Structure (SMILES): CCC1=C2CC[C@H]3C(=O)NC(=O)[C@H]3[C@H]2[C@@]2(C)/C(=N/CC3CC3)OC(=O)N2C1=O
- AC50 (Cytochrome P450 3A4): 25.1 µM (inconclusive)

Structure (SMILES): CC(C)C[C@H](NC(=O)c1[nH]cnc1C(=O)NC1CCN(C(=O)OC(C)(C)C)CC1)C(=O)OCc1ccccc1
- EC50 [4]: 8.37 µM (active)
- EC50 (Streptokinase A): > 150 µM (not active)
- CC50 [5]: > 40 µM (active)
- IC50 [6]: 4.9 µM (not active)
- EC50 (Streptococcus): 12.3 µM (active)
- IC50 (Fatty acid synthase [7]): 8.64 µM (active)
- IC50 (Fatty acid synthase [8]): 6.28 µM (active)

Structure (SMILES): O=C(O)C1CC=CCC1C(=O)Nc1ccccc1Cl (stereo not drawn)
- IC50 (Leucine aminopeptidase): 12 µM (active)

Structure (SMILES): COc1cc(NC2c3ccccc3C(=O)N2Cc2ccc3c(c2)OCO3)cc(OC)c1OC (stereo not drawn)
- AC50 [9]: 6.77 µM (active)
- AC50 [10]: 5.79 µM (active)
- AC50 [11]: 14.7 µM (active)
- AC50 [12]: 10.1 µM (active)

Structure (SMILES): O=C(O)CS(=O)(=O)c1ccc2ccccc2c1
- IC50 [13]: > 100 µM (not active)

Structure (SMILES): Oc1nc2ccccc2n1C1CCN(C(c2ccccc2OC(F)(F)F)c2nnnn2Cc2ccccc2)CC1 (stereo not drawn)
- AC50 [14]: 18.9 µM (active)
- AC50 [15]: 20.5 µM (active)
- AC50 [16]: 22.9 µM (active)
- AC50 [17]: 17.6 µM (active)

Structure (SMILES): c1ccc2c(Cc3c[nH]c4ccccc34)c[nH]c2c1 [ARUNDINE]
- AC50 (Cytochrome P450 3A4): 39.8 µM (inconclusive)

Structure (SMILES): COC(=O)CC[C@@H](C)[C@H]1CC[C@H]2[C@@H]3[C@H](O)C[C@@H]4C[C@H](O)CC[C@]4(C)[C@H]3C[C@H](O)[C@]12C [CHOLIC ACID, METHYL ESTER]
- AC50 (Cytochrome P450 3A4): 31.6 µM (inconclusive)
